{
  "source": "ChEMBL document CHEMBL4406791",
  "about": "“Allosteric Modalities for Membrane-Bound Receptors: Insights from Drug Hunting for Brain Diseases” (J Med Chem, 2019)",
  "target": "Metabotropic glutamate receptor 5 (Homo sapiens) (UniProt P41594)",
  "sequence (P41594 21-1212 limits assumed)": "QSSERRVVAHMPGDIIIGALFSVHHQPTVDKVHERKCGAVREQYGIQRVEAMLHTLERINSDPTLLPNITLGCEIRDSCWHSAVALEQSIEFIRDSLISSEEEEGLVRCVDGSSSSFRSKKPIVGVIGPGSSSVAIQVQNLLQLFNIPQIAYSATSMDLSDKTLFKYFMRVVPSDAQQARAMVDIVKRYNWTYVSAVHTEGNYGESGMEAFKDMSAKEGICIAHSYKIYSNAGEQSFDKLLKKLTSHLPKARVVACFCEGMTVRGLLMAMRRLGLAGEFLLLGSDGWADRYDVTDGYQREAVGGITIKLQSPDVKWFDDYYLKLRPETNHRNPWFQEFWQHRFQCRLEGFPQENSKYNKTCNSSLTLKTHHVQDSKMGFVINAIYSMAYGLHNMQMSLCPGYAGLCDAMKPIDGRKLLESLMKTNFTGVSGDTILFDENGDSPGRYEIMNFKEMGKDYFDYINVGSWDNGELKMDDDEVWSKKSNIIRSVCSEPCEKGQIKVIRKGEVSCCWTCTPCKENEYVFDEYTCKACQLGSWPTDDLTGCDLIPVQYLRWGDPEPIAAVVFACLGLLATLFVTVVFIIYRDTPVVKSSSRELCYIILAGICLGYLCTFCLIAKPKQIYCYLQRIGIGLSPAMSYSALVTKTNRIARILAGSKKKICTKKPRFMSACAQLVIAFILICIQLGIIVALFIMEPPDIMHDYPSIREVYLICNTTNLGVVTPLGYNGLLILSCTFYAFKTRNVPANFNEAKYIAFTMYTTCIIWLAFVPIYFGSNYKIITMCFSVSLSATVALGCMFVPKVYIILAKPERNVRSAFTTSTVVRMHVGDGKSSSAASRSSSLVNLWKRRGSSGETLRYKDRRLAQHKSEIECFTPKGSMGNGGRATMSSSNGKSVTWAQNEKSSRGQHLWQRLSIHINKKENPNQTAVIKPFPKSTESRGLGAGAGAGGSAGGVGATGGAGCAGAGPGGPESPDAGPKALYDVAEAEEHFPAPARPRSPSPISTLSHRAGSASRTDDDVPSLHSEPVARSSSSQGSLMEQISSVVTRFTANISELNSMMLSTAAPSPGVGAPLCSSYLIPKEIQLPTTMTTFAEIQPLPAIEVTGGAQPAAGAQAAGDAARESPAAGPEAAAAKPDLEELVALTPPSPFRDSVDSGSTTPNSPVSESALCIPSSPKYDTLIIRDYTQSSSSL",
  "test": "Binding affinity to mGluR5 (unknown origin) assessed as association rate constant",
  "data": [
    {"smiles": "O=C(Nc1ccc(-c2ccn3c(CC4CC4)nnc3c2C(F)(F)F)cc1)c1ccc(S(=O)(=O)F)cc1", "values": [
      {"measurement": "K", "value": 3.2, "unit": "×10³ /M/s"}
    ]}
  ]
}
